These results are taken from PubChem BioAssay (NCI).

Some test systems named below: MOLT-4 leukemia; HCT-116 colon; HOP-62 NSCLC; SN12C renal; KM12 colon; NCI-H522 lung; RXF 393 renal; MDA-MB-231 breast; UACC-257 melanoma; CCRF-CEM leukemia.
Common to all, as to experiment: DTP human tumour cell line panel, 48 h

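Assay format: 96-well plates, 48-hour exposure. Abbreviation: GI50, concentration required for 50% inhibition of growth. The concentration for full growth arrest is given as TGI.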

With `COC(=O)c1c(C)nc(C)c2c1C(=O)C(Br)=C(NCc1ccccc1)C2=O`, the GI50 (usually the concentration giving 50% growth inhibition) with MOLT-4 leukemia was 3.09 µM; in the experiment with HCT-116 colon, 2.5 µM; in the experiment on HOP-62 NSCLC, 3.12 µM; with SN12C renal it was 1.49 µM; in the experiment on KM12 colon it was 2.93 µM; with NCI-H522 lung, 2.25 µM. Further, the GI50 in the experiment on RXF 393 renal is 3.08 µM; in the experiment with MDA-MB-231 breast, 2.11 µM; in the experiment with UACC-257 melanoma it was 1.62 µM; in the experiment with CCRF-CEM leukemia it was 3.11 µM. Moreover, the TGI (as a rule, the concentration at which net growth stops) came to 10.8 µM in the experiment with MOLT-4 leukemia; 7.22 µM in the experiment with HCT-116 colon; 10.8 µM in the experiment with HOP-62 NSCLC; 3.45 µM in the experiment with SN12C renal; 13.4 µM with KM12 colon; 6.09 µM in the experiment with NCI-H522 lung. Also, the TGI in the experiment with RXF 393 renal came to 9.69 µM; in the experiment on MDA-MB-231 breast, 8.4 µM; in the experiment on UACC-257 melanoma, 3.19 µM; with CCRF-CEM leukemia, 36.8 µM.
Take `O=c1cc(-c2ccccc2)oc2ccc(Cl)cc12`: the TGI is 98.7 µM in the experiment on MOLT-4 leukemia; more than 100 µM with HCT-116 colon; more than 85.8 µM in the experiment on HOP-62 NSCLC; more than 100 µM in the experiment on SN12C renal; more than 80.6 µM in the experiment with KM12 colon; more than 100 µM in the experiment with NCI-H522 lung. The TGI with RXF 393 renal is more than 91.2 µM; in the experiment on MDA-MB-231 breast, more than 31.6 µM; with UACC-257 melanoma it was more than 74.6 µM; in the experiment on CCRF-CEM leukemia it was more than 100 µM.
For `COc1cc2ncn(-c3cc(OCc4ccccc4C(F)(F)F)c(C(N)=O)s3)c2cc1OC`, the GI50 is 0.13 µM in the experiment on MOLT-4 leukemia; 0.246 µM in the experiment on HCT-116 colon; 0.197 µM in the experiment on HOP-62 NSCLC; 2.67 µM with SN12C renal; 0.0958 µM in the experiment on KM12 colon; 0.168 µM with NCI-H522 lung. Moreover, the GI50 with RXF 393 renal is 0.102 µM; in the experiment with MDA-MB-231 breast it was 0.27 µM; in the experiment on UACC-257 melanoma, more than 5.96 µM; with CCRF-CEM leukemia it was 0.0841 µM. In addition, the TGI is more than 25 µM in the experiment with MOLT-4 leukemia; more than 25 µM with HCT-116 colon; 5.88 µM in the experiment on HOP-62 NSCLC; more than 25 µM with SN12C renal; more than 25 µM with KM12 colon; 3.67 µM in the experiment with NCI-H522 lung. Besides, the TGI with RXF 393 renal was 4.02 µM; in the experiment on MDA-MB-231 breast it was more than 25 µM; with UACC-257 melanoma it was more than 25 µM; in the experiment with CCRF-CEM leukemia, more than 25 µM.
In the case of `Cc1cc(NC(=O)NCc2ccc(N3C(N)=NC(N)=NC3(C)C)cc2)ccc1S(=O)(=O)F`, the GI50 in the experiment with MOLT-4 leukemia is 2.01 µM; with HCT-116 colon it was 0.429 µM; in the experiment with HOP-62 NSCLC, 12.8 µM; in the experiment on SN12C renal, 0.833 µM; with KM12 colon, 0.665 µM; with NCI-H522 lung it was 6.1 µM. The GI50 in the experiment with RXF 393 renal was 51.2 µM; in the experiment with MDA-MB-231 breast, more than 62.2 µM; with UACC-257 melanoma it was 33.6 µM; with CCRF-CEM leukemia it was 0.815 µM. Further, the TGI in the experiment with MOLT-4 leukemia, in the experiment with HCT-116 colon, in the experiment on HOP-62 NSCLC, in the experiment on SN12C renal, in the experiment on KM12 colon and in the experiment on NCI-H522 lung was more than 100 µM throughout. For the same compound, the TGI in the experiment with RXF 393 renal, in the experiment on MDA-MB-231 breast, in the experiment with UACC-257 melanoma and with CCRF-CEM leukemia was more than 100 µM each time.
In the case of `CNC(=O)CCN1CCN(CC/C=C2\c3ccccc3Sc3ccc(Cl)cc32)CC1`, the GI50 in the experiment on MOLT-4 leukemia was 6.56 µM; in the experiment on HCT-116 colon, 5.76 µM; with HOP-62 NSCLC, 14.6 µM; with SN12C renal, 12.1 µM; in the experiment on KM12 colon it was 7.53 µM; in the experiment on NCI-H522 lung it was 20 µM. For the same compound, the GI50 in the experiment on RXF 393 renal was 3.55 µM; in the experiment on MDA-MB-231 breast, 10.6 µM; with UACC-257 melanoma it was 1.53 µM; with CCRF-CEM leukemia it was 6.31 µM. The TGI is more than 34.1 µM with MOLT-4 leukemia; 20.9 µM in the experiment with HCT-116 colon; 32.7 µM in the experiment on HOP-62 NSCLC; 26.6 µM with SN12C renal; 23.5 µM with KM12 colon; 43.8 µM in the experiment on NCI-H522 lung. Besides, the TGI in the experiment on RXF 393 renal was determined as 20.4 µM; in the experiment with MDA-MB-231 breast, 24.7 µM; with UACC-257 melanoma, 3.06 µM; in the experiment with CCRF-CEM leukemia, 44.8 µM.
